Experimental findings from ChEMBL document CHEMBL5260859, “Discovery and structure-activity relationship study of 2-piperazinyl-benzothiazole derivatives as potent and selective PPARδ agonists” (Bioorg Med Chem, 2023) are described below.

Format in all cases: cell-based
Assay [1] has as its target T1, Peroxisome proliferator-activated receptor delta (Homo sapiens) (UniProt Q03181).
T1 sequence (whole entry): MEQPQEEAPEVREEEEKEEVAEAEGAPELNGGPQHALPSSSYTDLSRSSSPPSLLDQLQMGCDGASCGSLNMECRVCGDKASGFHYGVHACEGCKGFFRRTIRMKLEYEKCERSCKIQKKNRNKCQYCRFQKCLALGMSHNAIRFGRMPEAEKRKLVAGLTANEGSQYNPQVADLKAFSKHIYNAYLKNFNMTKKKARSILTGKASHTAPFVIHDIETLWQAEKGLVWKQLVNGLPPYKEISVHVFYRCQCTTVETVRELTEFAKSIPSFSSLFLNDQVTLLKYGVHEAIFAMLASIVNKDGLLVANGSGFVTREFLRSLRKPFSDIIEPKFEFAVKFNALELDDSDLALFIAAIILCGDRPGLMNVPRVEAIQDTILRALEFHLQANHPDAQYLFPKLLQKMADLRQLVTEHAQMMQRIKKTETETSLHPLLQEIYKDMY
As to the kind of experiment: Agonist activity at Gal4-fused human PPAR-delta ligand binding domain expressed in CHO-K1 cells assessed as receptor transactivation incubated for 24 to 48 hrs by luciferase reporter gene assay relative to control. The note with it: time lower 24.0 hrs, time upper […]. Background: Reporter assays use an easily measured gene product as a stand-in for the process of interest.

For assay [2], the target named is T2, Peroxisome proliferator-activated receptor delta (Mus musculus) (UniProt P35396).
T2 sequence (whole entry): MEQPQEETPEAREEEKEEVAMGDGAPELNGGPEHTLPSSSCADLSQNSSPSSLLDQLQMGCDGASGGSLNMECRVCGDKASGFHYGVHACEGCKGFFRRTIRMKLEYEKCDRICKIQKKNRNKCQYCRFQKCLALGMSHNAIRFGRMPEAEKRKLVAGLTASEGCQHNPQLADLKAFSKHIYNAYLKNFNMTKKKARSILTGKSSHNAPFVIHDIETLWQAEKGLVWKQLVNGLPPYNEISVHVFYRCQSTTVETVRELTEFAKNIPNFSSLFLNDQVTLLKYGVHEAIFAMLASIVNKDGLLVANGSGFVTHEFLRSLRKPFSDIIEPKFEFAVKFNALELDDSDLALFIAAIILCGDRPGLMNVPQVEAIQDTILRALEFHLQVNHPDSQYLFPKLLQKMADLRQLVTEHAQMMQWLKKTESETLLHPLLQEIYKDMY
The assay is described as follows: Agonist activity at Gal4-fused mouse PPAR-delta ligand binding domain expressed in CHO-K1 cells assessed as receptor transactivation incubated for 24 to 48 hrs by luciferase reporter gene assay relative to control. To be noted: time lower 24.0 hrs, time upper […].

The target in assay [3] is T3, Peroxisome proliferator-activated receptor alpha (Homo sapiens) (UniProt Q07869).
T3 sequence (whole entry): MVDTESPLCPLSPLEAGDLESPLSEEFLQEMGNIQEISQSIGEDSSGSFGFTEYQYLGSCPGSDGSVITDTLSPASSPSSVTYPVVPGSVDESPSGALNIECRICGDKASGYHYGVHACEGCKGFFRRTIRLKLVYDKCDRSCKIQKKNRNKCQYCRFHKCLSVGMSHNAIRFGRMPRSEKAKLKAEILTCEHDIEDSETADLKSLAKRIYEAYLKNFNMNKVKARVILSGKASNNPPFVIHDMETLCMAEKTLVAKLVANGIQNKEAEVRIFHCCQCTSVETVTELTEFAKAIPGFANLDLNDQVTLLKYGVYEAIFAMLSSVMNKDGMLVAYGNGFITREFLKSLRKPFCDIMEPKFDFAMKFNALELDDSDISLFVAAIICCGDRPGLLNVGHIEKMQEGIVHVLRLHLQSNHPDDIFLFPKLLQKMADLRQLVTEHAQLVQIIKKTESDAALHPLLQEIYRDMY
The assay is described as follows: Agonist activity at Gal4-fused human PPAR-alpha ligand binding domain expressed in CHO-K1 cells assessed as receptor transactivation incubated for 24 to 48 hrs by luciferase reporter gene assay relative to control. To be noted: time lower 24.0 hrs, time upper […].

Assay [4] concerns the target T4, Peroxisome proliferator-activated receptor alpha (Mus musculus, UniProt P23204).
T4 sequence (P23204 whole entry): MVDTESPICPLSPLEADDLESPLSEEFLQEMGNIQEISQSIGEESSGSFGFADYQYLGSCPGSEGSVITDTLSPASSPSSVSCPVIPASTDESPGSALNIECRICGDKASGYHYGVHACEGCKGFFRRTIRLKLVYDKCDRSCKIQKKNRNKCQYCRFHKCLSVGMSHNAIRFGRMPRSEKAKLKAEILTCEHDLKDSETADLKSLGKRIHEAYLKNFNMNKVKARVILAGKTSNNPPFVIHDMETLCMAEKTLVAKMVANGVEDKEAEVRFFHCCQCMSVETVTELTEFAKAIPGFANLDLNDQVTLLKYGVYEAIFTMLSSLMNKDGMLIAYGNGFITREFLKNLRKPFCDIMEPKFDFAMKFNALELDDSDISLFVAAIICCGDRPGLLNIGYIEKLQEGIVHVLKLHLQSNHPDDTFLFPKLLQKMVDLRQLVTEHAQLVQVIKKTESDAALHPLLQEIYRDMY
As to the kind of experiment: Agonist activity at Gal4-fused mouse PPAR-alpha ligand binding domain expressed in CHO-K1 cells assessed as receptor transactivation incubated for 24 to 48 hrs by luciferase reporter gene assay.

For another assay, the species on record is Homo sapiens. As to the kind of experiment: Selectivity ratio of EC50 for agonist activity at Gal4-fused human PPAR-alpha ligand binding domain expressed in CHO-K1 cells to EC50 for agonist activity at Gal4-fused human PPAR-delta ligand binding domain expressed in CHO-K1 cells.
In assay [5] the target is T5, Peroxisome proliferator-activated receptor alpha (Mus musculus) (UniProt P23204).
T5 sequence (whole entry): T4 sequence (P23204 whole entry)
The assay is described as follows: Agonist activity at Gal4-fused mouse PPAR-alpha ligand binding domain expressed in CHO-K1 cells assessed as receptor transactivation incubated for 24 to 48 hrs by luciferase reporter gene assay relative to control. The note with it: time lower 24.0 hrs, time upper […].

Assay [6] is filed under the species Mus musculus. As to the kind of experiment: Selectivity ratio of EC50 for agonist activity at Gal4-fused mouse PPAR-gamma ligand binding domain expressed in CHO-K1 cells to EC50 for agonist activity at Gal4-fused mouse PPAR-delta ligand binding domain expressed in CHO-K1 cells.
The species entered for assay [7] is Mus musculus. As to the kind of experiment: Selectivity ratio of EC50 for agonist activity at Gal4-fused mouse PPAR-alpha ligand binding domain expressed in CHO-K1 cells to EC50 for agonist activity at Gal4-fused mouse PPAR-delta ligand binding domain expressed in CHO-K1 cells.

Turning to `Cc1ccc(CC(=O)O)cc1OCCC1CCN(c2nc3ccc(Cl)cc3s2)CC1`, the Emax amounted to 16.2% in assay [1], 20% in assay [2], 8% in assay [3] and 15.5% in assay [5]. For the same molecule, in assay [4], the EC50 was found to be 1.13 µM. Also, the Ratio EC50 in the assay filed under Homo sapiens amounted to 39; in the assay filed under Mus musculus [6], 10; in the assay filed under Mus musculus [7] it was 16.

What is called EC50 is the concentration giving half of the maximal effect.
